Reference: ChEMBL document CHEMBL1240307, “A functional genomics approach to the mode of action of apratoxin A” (Nat Chem Biol, 2006)

How the values were obtained:
Type in all cases: functional
HT-29 [1] = assay: Antitumor activity against human HT-29 cells assessed as down-regulation of GTSE1 mRNA expression at 2 nM after 3 hrs relative to control
SF-268 = assay: Cytotoxicity against human SF268 cells by sulforhodamine B assay
HT-29 [2] = assay: Antitumor activity against human HT-29 cells assessed as down-regulation of CCNE2 mRNA expression at 2 nM after 12 hrs relative to control
HT-29 [3] = assay: Antitumor activity against human HT-29 cells assessed as upregulation of KCNK10 mRNA expression at 10 nM after 6 hrs relative to control
HT-29 [4] = assay: Antitumor activity against human HT-29 cells assessed as down-regulation of CCNE2 mRNA expression at 10 nM after 6 hrs relative to control
HT-29 [5] = assay: Antitumor activity against human HT-29 cells assessed as upregulation of KCNK10 mRNA expression at 2 nM after 6 hrs relative to control
NCI-H460 = assay: Cytotoxicity against human NCI-H460 cells by sulforhodamine B assay
U2OS [6] = assay: Cell cycle arrest in human U2OS cells assessed as accumulation at G1 phase at 5 nM after 48 hrs by FACS analysis (reference value: 49.8%)
HT-29 [7] = assay: Antitumor activity against human HT-29 cells assessed as upregulation of KCNK10 mRNA expression at 2 nM after 3 hrs relative to control
HT-29 [8] = assay: Cytotoxicity against human HT-29 cells by sulforhodamine B assay
HT-29 [9] = assay: Antitumor activity against human HT-29 cells assessed as upregulation of DDIT4 mRNA expression at 10 nM after 6 hrs relative to control
HT-29 [10] = assay: Antitumor activity against human HT-29 cells assessed as upregulation of RASSF4 mRNA expression at 10 nM after 12 hrs relative to control
HT-29 [11] = assay: Antitumor activity against human HT-29 cells assessed as down-regulation of CCNE2 mRNA expression at 10 nM after 3 hrs relative to control
HT-29 [12] = assay: Antitumor activity against human HT-29 cells assessed as down-regulation of GTSE1 mRNA expression at 10 nM after 12 hrs relative to control
PC-3 = assay: Cytotoxicity against human PC3 cells by sulforhodamine B assay
HT-29 [13] = assay: Antitumor activity against human HT-29 cells assessed as upregulation of MGC4504 mRNA expression at 10 nM after 12 hrs relative to control
NCI/ADR-RES = assay: Cytotoxicity against human NCI/ADR-RES cells by sulforhodamine B assay
OVCAR-8 = assay: Cytotoxicity against human OVCAR8 cells by sulforhodamine B assay
A549 = assay: Cytotoxicity against human A549 cells by sulforhodamine B assay
SK-MEL-5 = assay: Cytotoxicity against human SK-MEL-5 cells by sulforhodamine B assay
U2OS [14] = assay: Cell cycle arrest in human U2OS cells assessed as accumulation at S phase at 50 nM after 48 hrs by FACS analysis (reference value: 37.3%)
HT-29 [15] = assay: Antitumor activity against human HT-29 cells assessed as upregulation of HSPA1A mRNA expression at 10 nM after 6 hrs relative to control
U2OS [16] = assay: Cell cycle arrest in human U2OS cells assessed as accumulation at S phase at 5 nM after 24 hrs by FACS analysis (reference value: 37.3%)
OVCAR-5 = assay: Cytotoxicity against human OVCAR5 cells by sulforhodamine B assay
HT-29 [17] = assay: Antitumor activity against human HT-29 cells assessed as down-regulation of TAL1 mRNA expression at 10 nM after 12 hrs relative to control
T47D = assay: Cytotoxicity against human T47D cells by sulforhodamine B assay
COLO 205 = assay: Cytotoxicity against human COLO205 cells by sulforhodamine B assay
U2OS [18] = assay: Cell cycle arrest in human U2OS cells assessed as accumulation at G1 phase at 5 nM after 24 hrs by FACS analysis (reference value: 49.8%)
HT-29 [19] = assay: Antitumor activity against human HT-29 cells assessed as upregulation of MGC4504 mRNA expression at 2 nM after 12 hrs relative to control
NCI-H522 = assay: Cytotoxicity against human NCI-H522 cells by sulforhodamine B assay
TK-10 = assay: Cytotoxicity against human TK10 cells by sulforhodamine B assay
HT-29 [20] = assay: Antitumor activity against human HT-29 cells assessed as down-regulation of CCNE2 mRNA expression at 2 nM after 3 hrs relative to control

## CC[C@H](C)[C@H]1C(=O)N2CCC[C@H]2C(=O)O[C@H](C(C)(C)C)C[C@@H](C)C[C@H](O)[C@H](C)C2=N[C@@H](/C=C(\C)C(=O)N[C@@H](Cc3ccc(OC)cc3)C(=O)N(C)[C@@H](C)C(=O)N1C)CS2 [APRATOXIN A]
HT-29 [1]
  fold change (FC): <=2
SF-268
  GI50: 50.8 nM
HT-29 [2]
  fold change (FC): <=2
HT-29 [3]
  fold change (FC): 7.38
HT-29 [4]
  fold change (FC): <=2
HT-29 [5]
  fold change (FC): 6.35
NCI-H460
  GI50: 2.77 nM
U2OS [6]
  inhibition at 0.005 µM: 82.1%
HT-29 [7]
  fold change (FC): <=2
HT-29 [8]
  GI50: 1.04 nM
HT-29 [8]; read-out: LC50 (the source's name)
  CC50: 75.2 nM
HT-29 [9]
  fold change (FC): 16.18
HT-29 [10]
  fold change (FC): <=2
HT-29 [11]
  fold change (FC): <=2
HT-29 [12]
  fold change (FC): -2.35
PC-3
  GI50: 4.96 nM
HT-29 [13]
  fold change (FC): 12.09
NCI/ADR-RES
  GI50: 15.3 nM
OVCAR-8
  GI50: 7.26 nM
A549
  GI50: 5.38 nM
SK-MEL-5
  GI50: 2.31 nM
U2OS [14]
  inhibition at 0.05 µM: 0.8%
HT-29 [15]
  fold change (FC): 2.68
U2OS [16]
  inhibition at 0.005 µM: 28.2%
OVCAR-5
  GI50: > 100 nM
HT-29 [17]
  fold change (FC): <=2
T47D
  GI50: 3.63 nM
COLO 205
  GI50: 2.71 nM
U2OS [18]
  inhibition at 0.005 µM: 61.6%
HT-29 [19]
  fold change (FC): 5.19
NCI-H522
  GI50: 6.03 nM
TK-10
  GI50: 2.63 nM
HT-29 [20]
  fold change (FC): <=2
